Measured values: patent publication US10857246B2, “Nuclear imaging and radiotherapeutics agents targeting carbonic anhydrase IX and uses thereof” (THE JOHNS HOPKINS UNIVERSITY, priority 2015, dated 2020)
“Also recorded” adds a separate entry of the source.

What was measured:
[1] = system: CAIX-expressing SK-RC-52 tumors; assay: Biodistribution in mice bearing SK-RC-52 xenografts; assay type: in vivo; details: 740 kBq i.v.
Method: Animal experiments were performed in accordance with protocols approved by the Johns Hopkins Animal Care and Use Committee (ACUC). Six-week-old female NOD/SCID mice were purchased from the Animal Resource Core of the Sidney Kimmel Comprehensive Cancer Center of Johns Hopkins and were subcutaneously injected in the lower left flank or upper right flank with 1×10^6 SK-RC-52 cells in RPMI 1640 GlutaMAX™ media (Life Technologies, Frederick, Md.) supplemented with 1% fetal bovine serum (FBS). Mice were monitored for tumor size and used for SPECT/CT imaging when the size of the tumor reached 100 mm^3.
Mice bearing SK-RC-52 xenografts at lower left flank were injected intravenously with 740 kBq (20 μCi) of [^111In]XYIMSR-01, or [^177Lu]XYIMSR-01 in 200 μL of PBS. For competitive blocking, same tumor bearing mice were injected with 740 kBq (20 μCi) of [^111In]XYIMSR-01 and 200 nmole of 8 in 200 μL of PBS. At 1 h, 4 h, 8 h, 24 h and 48 h post-injection, mice were sacrificed by cervical dislocation and the blood was immediately collected by cardiac puncture. Heart, lungs, pancreas, spleen, fat, brain, muscle, small intestines, liver, stomach, kidney, urinary bladder, and tumor were collected. Each organ was weighed and the tissue radioactivity was measured with an automated gamma counter (1282 Compugamma CS, Pharmacia/LKBNuclear, Inc., Mt. Waverly, Vic. Australia). The percentage of injected dose per gram of tissue (% ID/g) was calculated by comparison with samples of a standard dilution of the initial dose. All measurements were corrected for radioactive decay.
Data were expressed as mean±standard deviation (SD). Prism software (GraphPAD, San Diego, Calif.) was used to determine statistical significance. Statistical significance was calculated using a paired t test. P-values <0.0001 were considered significant.
Mice bearing SK-RC-52 xenografts within the lower left flank were injected intravenously with 740 kBq (20 μCi) of [Al^18F]XYIMSR-04 in 200 μL of PBS. At specific 1 hour time point mentioned in the paper, mice (n=5) were sacrificed by cervical dislocation and the blood was immediately collected by cardiac puncture. Heart, lungs, pancreas, spleen, fat, brain, muscle, small intestines, liver, bone, stomach, kidney, urinary bladder, and tumor were collected. Each organ was weighed and the tissue radioactivity was measured with an automated gamma counter (1282 Compugamma CS, Pharmacia/LKBNuclear, Inc., Mt. Waverly, Vic. Australia). The percentage of injected dose per gram of tissue (% ID/g) was calculated by comparison with samples of a standard dilution of the initial dose. All measurements were corrected for radioactive decay. Data were expressed as mean±standard deviation (SD). Prism software (GraphPAD, San Diego, Calif.) was used to determine statistical significance. Statistical significance was calculated using a paired t test. P-values <0.0001 were considered significant.
Mice bearing SK-RC-52 xenografts within the upper right flank were injected intravenously with 740 kBq (20 μCi) of [^64Cu]XYIMSR-06 in 200 μL of PBS. For in vivo competition (binding specificity) studies, tumor-bearing mice were injected with 740 kBq (20 μCi) of [^64Cu]XYIMSR-06 and 200 nmole of 8 in 200 μL of PBS concurrently. At specific times after injection (1 h, 4 h, 8 h and 24 h), mice (n=5) were sacrificed by cervical dislocation with blood immediately collected by cardiac puncture. Heart, lungs, pancreas, spleen, fat, brain, muscle, small intestines, liver, stomach, kidney, urinary bladder, and tumor were also collected. Each organ was weighed and the tissue radioactivity was measured with an automated gamma counter (1282 Compugamma CS, Pharmacia/LKBNuclear, Inc., Mt. Waverly, Vic. Australia). The percentage of injected dose per gram of tissue (% ID/g) was calculated by comparison with samples of a standard dilution of the initial dose. All measurements were corrected for radioactive decay. Data were expressed as mean±standard deviation (SD). […]

CAIX = target: T1, CAIX (Homo sapiens, UniProt Q16790); assay: CAIX specific uptake in vitro; assay type: cell-based
T1 construct: host or cells: ccRCC tumours in patients

SK-RC-52 xenografts = assay: Radio-therapy of mice bearing SK-RC-52 xenografts; assay type: in vivo; details: 11.1 MBq and 18.5 MBq i.v., n=4

SMILES: CC(CCC(=O)N[C@@H](CC(=O)N[C@@H](CC(=O)N[C@@H](CCCCn1cc(CCCC(=O)Nc2nnc(S(N)(=O)=O)s2)nn1)C(=O)NCCOCCOCCNC(=O)CN1CCN(CC(=O)[O-])CCN(CC(=O)[O-])CCN(CC(=O)[O-])CC1)C(=O)O)C(=O)O)(c1ccc(O)cc1)c1ccc(O)cc1.[177Lu+3] [[^177Lu]XYIMSR-01]
- Biodistribution Bladder ([1]; 1 h post-injection): 26.55 % ID/g
- Biodistribution Blood ([1]; 1 h post-injection): 0.55 % ID/g
- Biodistribution Brain ([1]; 1 h post-injection): 0.49 % ID/g
- Biodistribution Fat ([1]; 1 h post-injection): 1.07 % ID/g
- Biodistribution Heart ([1]; 1 h post-injection): 3.59 % ID/g
- Biodistribution Kidney ([1]; 1 h post-injection): 40.77 % ID/g
- Biodistribution Liver ([1]; 1 h post-injection): 4.15 % ID/g
- Biodistribution Lung ([1]; 1 h post-injection): 23.72 % ID/g
- Biodistribution Muscle ([1]; 1 h post-injection): 1.42 % ID/g
- Biodistribution Pancreas ([1]; 1 h post-injection): 2.03 % ID/g
- Biodistribution Small intestine ([1]; 1 h post-injection): 6.11 % ID/g
- Biodistribution Spleen ([1]; 1 h post-injection): 0.29 % ID/g
- Biodistribution Stomach ([1]; 1 h post-injection): 12.20 % ID/g
- Biodistribution Tumor ([1]; 1 h post-injection): 26.91 % ID/g
- Tumor/Blood ratio ([1]; 1 h post-injection): 47.9
- Tumor/Kidney ratio ([1]; 1 h post-injection): 0.6
- Tumor/Muscle ratio ([1]; 1 h post-injection): 18.8
- Biodistribution Bladder ([1]; 4 h post-injection): 6.60 % ID/g
- Biodistribution Blood ([1]; 4 h post-injection): 0.18 % ID/g
- Biodistribution Brain ([1]; 4 h post-injection): 0.33 % ID/g
- Biodistribution Fat ([1]; 4 h post-injection): 0.56 % ID/g
- Biodistribution Heart ([1]; 4 h post-injection): 1.52 % ID/g
- Biodistribution Kidney ([1]; 4 h post-injection): 19.17 % ID/g
- Biodistribution Liver ([1]; 4 h post-injection): 1.79 % ID/g
- Biodistribution Lung ([1]; 4 h post-injection): 10.35 % ID/g
- Biodistribution Muscle ([1]; 4 h post-injection): 0.65 % ID/g
- Biodistribution Pancreas ([1]; 4 h post-injection): 0.99 % ID/g
- Biodistribution Small intestine ([1]; 4 h post-injection): 2.64 % ID/g
- Biodistribution Spleen ([1]; 4 h post-injection): 0.15 % ID/g
- Biodistribution Stomach ([1]; 4 h post-injection): 6.06 % ID/g
- Biodistribution Tumor ([1]; 4 h post-injection): 26.28 % ID/g
- Tumor/Blood ratio ([1]; 4 h post-injection): 150.3
- Tumor/Kidney ratio ([1]; 4 h post-injection): 1.4
- Tumor/Muscle ratio ([1]; 4 h post-injection): 43.7
- Biodistribution Bladder ([1]; 8 h post-injection): 6.00 % ID/g
- Biodistribution Blood ([1]; 8 h post-injection): 0.16 % ID/g
- Biodistribution Brain ([1]; 8 h post-injection): 0.44 % ID/g
- Biodistribution Fat ([1]; 8 h post-injection): 0.46 % ID/g
- Biodistribution Heart ([1]; 8 h post-injection): 1.49 % ID/g
- Biodistribution Kidney ([1]; 8 h post-injection): 18.99 % ID/g
- Biodistribution Liver ([1]; 8 h post-injection): 1.87 % ID/g
- Biodistribution Lung ([1]; 8 h post-injection): 8.87 % ID/g
- Biodistribution Muscle ([1]; 8 h post-injection): 0.47 % ID/g
- Biodistribution Pancreas ([1]; 8 h post-injection): 1.03 % ID/g
- Biodistribution Small intestine ([1]; 8 h post-injection): 3.67 % ID/g
- Biodistribution Spleen ([1]; 8 h post-injection): 0.29 % ID/g
- Biodistribution Stomach ([1]; 8 h post-injection): 6.15 % ID/g
- Biodistribution Tumor ([1]; 8 h post-injection): 27.48 % ID/g
- Tumor/Blood ratio ([1]; 8 h post-injection): 178.6
- Tumor/Kidney ratio ([1]; 8 h post-injection): 1.5
- Tumor/Muscle ratio ([1]; 8 h post-injection): 65.0
- Biodistribution Bladder ([1]; 24 h + block (200 nmole of 8)): 0.73 % ID/g
- Biodistribution Blood ([1]; 24 h + block (200 nmole of 8)): 0.04 % ID/g
- Biodistribution Brain ([1]; 24 h + block (200 nmole of 8)): 0.04 % ID/g
- Biodistribution Fat ([1]; 24 h + block (200 nmole of 8)): 0.03 % ID/g
- Biodistribution Heart ([1]; 24 h + block (200 nmole of 8)): 0.08 % ID/g
- Biodistribution Kidney ([1]; 24 h + block (200 nmole of 8)): 1.54 % ID/g
- Biodistribution Liver ([1]; 24 h + block (200 nmole of 8)): 0.46 % ID/g
- Biodistribution Lung ([1]; 24 h + block (200 nmole of 8)): 0.73 % ID/g
- Biodistribution Muscle ([1]; 24 h + block (200 nmole of 8)): 0.03 % ID/g
- Biodistribution Pancreas ([1]; 24 h + block (200 nmole of 8)): 0.05 % ID/g
- Biodistribution Small intestine ([1]; 24 h + block (200 nmole of 8)): 0.18 % ID/g
- Biodistribution Spleen ([1]; 24 h + block (200 nmole of 8)): 0.38 % ID/g
- Biodistribution Stomach ([1]; 24 h + block (200 nmole of 8)): 0.21 % ID/g
- Biodistribution Tumor ([1]; 24 h + block (200 nmole of 8)): 1.70 % ID/g
- Tumor/Blood ratio ([1]; 24 h + block (200 nmole of 8)): 42.0
- Tumor/Kidney ratio ([1]; 24 h + block (200 nmole of 8)): 1.4
- Tumor/Muscle ratio ([1]; 24 h + block (200 nmole of 8)): 58.6
- Biodistribution Bladder ([1]; 24 h post-injection): 1.29 % ID/g
- Biodistribution Blood ([1]; 24 h post-injection): 0.02 % ID/g
- Biodistribution Brain ([1]; 24 h post-injection): 0.28 % ID/g
- Biodistribution Fat ([1]; 24 h post-injection): 0.05 % ID/g
- Biodistribution Heart ([1]; 24 h post-injection): 0.28 % ID/g
- Biodistribution Kidney ([1]; 24 h post-injection): 3.11 % ID/g
- Biodistribution Liver ([1]; 24 h post-injection): 0.47 % ID/g
- Biodistribution Lung ([1]; 24 h post-injection): 1.48 % ID/g
- Biodistribution Muscle ([1]; 24 h post-injection): 0.10 % ID/g
- Biodistribution Pancreas ([1]; 24 h post-injection): 0.16 % ID/g
- Biodistribution Small intestine ([1]; 24 h post-injection): 0.96 % ID/g
- Biodistribution Spleen ([1]; 24 h post-injection): 0.20 % ID/g
- Biodistribution Stomach ([1]; 24 h post-injection): 1.02 % ID/g
- Biodistribution Tumor ([1]; 24 h post-injection): 12.51 % ID/g
- Biodistribution Bladder ([1]; 48 h + block (200 nmole of 8)): 0.28 % ID/g
- Biodistribution Blood ([1]; 48 h + block (200 nmole of 8)): 0.04 % ID/g
- Biodistribution Brain ([1]; 48 h + block (200 nmole of 8)): 0.02 % ID/g
- Biodistribution Fat ([1]; 48 h + block (200 nmole of 8)): 0.02 % ID/g
- Biodistribution Heart ([1]; 48 h + block (200 nmole of 8)): 0.04 % ID/g
- Biodistribution Kidney ([1]; 48 h + block (200 nmole of 8)): 0.39 % ID/g
- Biodistribution Liver ([1]; 48 h + block (200 nmole of 8)): 0.23 % ID/g
- Biodistribution Lung ([1]; 48 h + block (200 nmole of 8)): 0.18 % ID/g
- Biodistribution Muscle ([1]; 48 h + block (200 nmole of 8)): 0.01 % ID/g
- Biodistribution Pancreas ([1]; 48 h + block (200 nmole of 8)): 0.02 % ID/g
- Biodistribution Small intestine ([1]; 48 h + block (200 nmole of 8)): 0.05 % ID/g
- Biodistribution Spleen ([1]; 48 h + block (200 nmole of 8)): 0.15 % ID/g
- Biodistribution Stomach ([1]; 48 h + block (200 nmole of 8)): 0.09 % ID/g
- Biodistribution Tumor ([1]; 48 h + block (200 nmole of 8)): 0.65 % ID/g
- Tumor/Blood ratio ([1]; 48 h + block (200 nmole of 8)): 42.7
- Tumor/Kidney ratio ([1]; 48 h + block (200 nmole of 8)): 1.7
- Tumor/Muscle ratio ([1]; 48 h + block (200 nmole of 8)): 62.5
- Biodistribution Bladder ([1]; 48 h post-injection): 0.20 % ID/g
- Biodistribution Blood ([1]; 48 h post-injection): 0.04 % ID/g
- Biodistribution Brain ([1]; 48 h post-injection): 0.17 % ID/g
- Biodistribution Fat ([1]; 48 h post-injection): 0.03 % ID/g
- Biodistribution Heart ([1]; 48 h post-injection): 0.12 % ID/g
- Biodistribution Kidney ([1]; 48 h post-injection): 0.76 % ID/g
- Biodistribution Liver ([1]; 48 h post-injection): 0.19 % ID/g
- Biodistribution Lung ([1]; 48 h post-injection): 0.90 % ID/g
- Biodistribution Muscle ([1]; 48 h post-injection): 0.04 % ID/g
- Biodistribution Pancreas ([1]; 48 h post-injection): 0.06 % ID/g
- Biodistribution Small intestine ([1]; 48 h post-injection): 0.20 % ID/g
- Biodistribution Spleen ([1]; 48 h post-injection): 0.13 % ID/g
- Biodistribution Stomach ([1]; 48 h post-injection): 0.35 % ID/g
- Biodistribution Tumor ([1]; 48 h post-injection): 5.82 % ID/g
- Tumor/Blood ratio ([1]; 48 h post-injection): 200.2
- Tumor/Kidney ratio ([1]; 48 h post-injection): 7.1
- Tumor/Muscle ratio ([1]; 48 h post-injection): 141.5
- Uptake in vitro (CAIX): CAIX specific uptake
- Tumor growth compared with control non-treated mice (SK-RC-52 xenografts): Delays in tumor growth; also recorded: significant therapeutic effect in controlling tumor growth
